From the PolyMetriX glass transition set
± gives the standard deviation of the reports.

| Compound | glass transition temperature [°C] |
| --- | --- |
| *CC(*)(C)c1nc(N(CCOCCOCCOC)CCOCCOCCOC)nc(N(CCOCCOCCOC)c2ccccc2)n1 (repeat unit) | -75.00 |
| *CC(C)(C)CS(*)(=O)=O (repeat unit) | 108.50 |
| *CC(CS(=O)(=O)C(C)C)O* (repeat unit) | 64.00 |
| *CCCCO* (repeat unit) [Poly(tetramethylene glycol)] | -83.6 ± 2.2 |
| *CCCCCCCNC(=O)CCCCCCCCCCCCCCCCCCC(=O)N* (repeat unit) | 46.00 |
| *CC(OCC)C1(C)C(=O)OC(=O)C1(*)C (repeat unit) | 244.00 |
| *Cc1cccc(CNC(=O)C2=C(C(=O)N*)C3C=CC2C3)c1 (repeat unit) | 291.00 |
| *CCCNC(=O)CCCCC(=O)NCCCN(*)C (repeat unit) | 5.00 |
| *CCOC(=O)O* (repeat unit) [Poly(ethylene carbonate)] | 10.92 ± 8.4 |
| *c1cc(-c2sc(-c3cc(CCCCCCC)c(*)s3)cc2CCCCCCC)c2cccccc1-2 (repeat unit) | 56.00 |
| *CCCCCOC(=O)NNC(=O)CCCCCCCCC(=O)NNC(=O)O* (repeat unit) | 20.00 |
| *N1CCOC1(*)CC (repeat unit) | 55.00 |
| *c1ccc(-c2nnc(*)o2)c(OCCCCCCCCCC)c1 (repeat unit) | 165.00 |
| *CC(*)(F)C(=O)OC (repeat unit) | 142.00 |
| *CC(c1ccccc1)C1C(=O)N(CCCCNC(=O)C(F)(F)C(F)(F)C(F)(F)C(F)(F)C(F)(F)C(F)(F)C(F)(F)F)C(=O)C1* (repeat unit) | 113.00 |
| */C=C/C1CC(*)C2C(=O)N(c3ccccc3)C(=O)C12 (repeat unit) | 220.00 |

| Compound | glass transition temperature [°C] |
| --- | --- |
| *CCCCCCCNC(=O)c1ccc(C(=O)N*)cc1 (repeat unit) | 160.00 |
| *CC(*)C(=O)c1ccc(OC)cc1 (repeat unit) | 46.00 |
| *OC1CCC(OC(=O)c2ccc(C(*)=O)cc2)CC1 (repeat unit) | 94.30 |
| *Oc1c(Cl)cc(C(C)(C)c2cc(Cl)c(OC(=O)CCCCC(*)=O)c(Cl)c2)cc1Cl (repeat unit) | 100.00 |
| *c1ccc(-c2cc(CCCCCCBr)c(*)s2)s1 (repeat unit) | 51.00 |
| *CC(CO*)(CS(=O)(=O)CC)CS(=O)(=O)CC (repeat unit) | 84.00 |
| *OC(=O)C1CCC(C(=O)OC2COC3C(*)COC23)CC1 (repeat unit) | 121.00 |
| *C1CC(*)(C#N)C1 (repeat unit) | 220.00 |
| *=Nc1ccc(Cc2ccc(NC(=*)CC)cc2)cc1 (repeat unit) | 130.00 |
| *C/C=C/C[Si](*)(C)CCCOc1ccccc1 (repeat unit) | -30.00 |
| *CC(*)C1CCCC1 (repeat unit) [Poly(vinyl cyclopentane) ] | 75 ± 0.6 |
| *CC(*)c1cccc(OC(C)=O)c1 (repeat unit) | 76.00 |
| *CC(*)CCC1CCCCC1 (repeat unit) | 40.00 |
| *Oc1ccc(C(C)(C)c2ccc(OC(=O)OCCN(CCOC(*)=O)c3ccccc3)cc2)cc1 (repeat unit) | 70.00 |
| *NC(CCC(=O)OCCCCC)C(*)=O (repeat unit) | -20.00 |

Continued, values first:

| glass transition temperature [°C] | Compound |
| --- | --- |
| 142.00 | *CCN(CCNC(=O)c1ccc2c(c1)C(=O)N(*)C2=O)c1ccc(/C=C/c2ccc([N+](=O)[O-])cc2)cc1 (repeat unit) |
| 241.00 | *c1ccc(-c2ccc(Oc3ccc(C4(C)CC(C)(C)c5ccc(Oc6ccc(-c7ccc(N8C(=O)c9ccc(Oc%10ccc(C(C)(C)c%11ccc(Oc%12ccc%13c(c%12)C(=O)N(*)C%13=O)cc%11)cc%10)cc9C8=O)cc7)cc6C(F)(F)F)cc54)cc3)c(C(F)(F)F)c2)cc1 (repeat unit) |
| 23.10 | */C=C/C1CC(*)C(C(=O)OCCCCCCCCCCCOc2ccc(-c3ccc(C#N)cc3)cc2)C1C(=O)OCCCCCCCCCCCOc1ccc(-c2ccc(C#N)cc2)cc1 (repeat unit) |
| 172.00 | *Oc1ccc(C2(c3ccc(Oc4ccc(C(=O)Oc5ccc(C6(c7ccc(OC(=O)c8ccc(*)cc8)cc7)CCC(c7ccccc7)CC6)cc5)cc4)cc3)CCC(C(C)(C)C)CC2)cc1 (repeat unit) |
| 96.00 | *Oc1ccc(OC(=O)c2cc(OCCCCCCCCCCCC)c(C(*)=O)cc2OCCCCCCCCCCCC)cc1-c1ccccc1 (repeat unit) |
| 237.50 ± 15 | *c1ccc(Oc2ccc(C(C)(C)c3ccc(Oc4ccc(N5C(=O)c6ccc(-c7ccc8c(c7)C(=O)N(*)C8=O)cc6C5=O)cc4)cc3)cc2)cc1 (repeat unit) |
| 255.50 | *Oc1ccc(NC(=O)c2cc(C(=O)Nc3ccc(Oc4ccc(C(c5ccc(*)cc5)(C(F)(F)F)C(F)(F)F)cc4)cc3)cc(C(C)(C)C)c2)cc1 (repeat unit) |
| 315.00 | *Oc1c(C)cc(C2(c3cc(C)c(OC(=O)c4cccc(C(*)=O)c4)c(C)c3)c3ccccc3-c3ccccc32)cc1C (repeat unit) |
| 249.00 | *c1ccc(-c2cc(-c3ccc(-c4ccccc4)cc3)cc(-c3ccc(N4C(=O)c5ccc(NC(=O)Nc6ccc(Oc7ccccc7-c7ccccc7Oc7ccc(NC(=O)Nc8ccc9c(c8)C(=O)N(*)C9=O)cc7)cc6)cc5C4=O)cc3)n2)cc1 (repeat unit) |
| 237.00 | *c1cccc(N2C(=O)C(=O)N(c3ccc(Cc4ccc(N5C(=O)C(=O)N(*)C5=O)cc4)cc3)C2=O)n1 (repeat unit) |
| 227.00 | *c1ccc(CC(=O)Nc2ccc(Cc3ccc(NC(=O)Cc4ccc(-c5sc(*)c(-c6ccccc6)c5-c5ccccc5)cc4)cc3)cc2)cc1 (repeat unit) |
| 158.00 | *CCCCCCN1C(=O)C(=O)N(c2ccc(Cc3ccc(N4C(=O)C(=O)N(*)C4=O)cc3)cc2)C1=O (repeat unit) |
| 240.00 | *c1ccc(-c2nc3cc(C(=O)c4ccc5nc(-c6ccccc6)c(-c6ccc(-n7c(=O)c8cc9c(=O)n(*)c(=O)c9cc8c7=O)cc6)nc5c4)ccc3nc2-c2ccccc2)cc1 (repeat unit) |
| 243.10 | *c1cc(C(=O)NCCCCCCCCCCCC)cc(N2C(=O)c3ccc(-c4ccc5c(c4)C(=O)N(*)C5=O)cc3C2=O)c1 (repeat unit) |
| 319.00 | *c1ccc(Cc2ccc(N3C(=O)c4ccc(S(=O)(=O)c5ccc6c(c5)C(=O)N(*)C6=O)cc4C3=O)cc2)cc1 (repeat unit) |
| 308.03 | *C(=O)c1ccc2c(c1)C(=O)N(c1ccc(C(c3ccc(N4C(=O)c5ccc(*)cc5C4=O)cc3)(C(F)(F)F)C(F)(F)F)cc1)C2=O (repeat unit) |
| 95.30 | *CC(*)(C)C(=O)Oc1ccc(OCc2ccccc2)cc1 (repeat unit) |

| glass transition temperature [°C] | Compound |
| --- | --- |
| 209.00 | *CCCC(=O)Nc1ccc(NC(=O)CCCN2C(=O)c3ccc(C(=O)c4ccc5c(c4)C(=O)N(*)C5=O)cc3C2=O)cc1 (repeat unit) |
| 21.00 | *Oc1ccc(CC(NC(=O)CCc2ccc(OC(=O)CCCC(*)=O)cc2)C(=O)OCCOCCOCC)cc1 (repeat unit) |
| 307.50 | *c1ccc2c(c1)C(=O)N(c1c(C)cc(Cc3cc(C)c(N4C(=O)c5ccc(C(*)(C(F)(F)F)C(F)(F)F)cc5C4=O)c(C)c3)cc1C)C2=O (repeat unit) |
| 129.00 | *O[Si](*)(C)CCCOc1ccc2c(c1)c1cc(-c3ccc4c(c3)c3ccccc3n4CC(CC)CCCC)ccc1n2CC(CC)CCCC (repeat unit) |
| 286.00 | *C(=O)Nc1cccc(NC(=O)c2ccc3c(c2)C(=O)N(c2ccc(Oc4ccc5ccc(Oc6ccc(N7C(=O)c8ccc(*)cc8C7=O)cc6)cc5c4)cc2)C3=O)c1 (repeat unit) |
| 55.00 | *CCCCCCn1ccc(-c2ccc(-c3ccn(*)n3)cc2)n1 (repeat unit) |
| 292.00 | *C(=O)Nc1ccc(Oc2ccc(-c3ccc(Oc4ccc(NC(=O)c5ccc6c(c5)C(=O)N(c5cccc(N7C(=O)c8ccc(*)cc8C7=O)c5)C6=O)cc4)cc3)cc2)cc1 (repeat unit) |
| 250.00 | *C(=O)Nc1ccc(C(c2ccc(NC(=O)c3ccc4c(c3)C(=O)N(c3c(C)cc(-c5cc(C)c(N6C(=O)c7ccc(*)cc7C6=O)c6ccccc56)c5ccccc35)C4=O)cc2)(C(F)(F)F)C(F)(F)F)cc1 (repeat unit) |
| 168.00 | *Nc1cc(NC(=O)c2cc(OCCCN(C)c3ccc(/N=N/c4ccc(S(C)(=O)=O)cc4)cc3)cc(C(*)=O)c2)cc(C(=O)OCCCN(C)c2ccc(/N=N/c3ccc(S(C)(=O)=O)cc3)cc2)c1 (repeat unit) |
| 230.00 | *Oc1ccc(NC(=O)CCCCC(=O)Nc2ccc(*)cc2)cc1 (repeat unit) |
| 290.00 | *C(=O)c1ccc2c(c1)C(=O)N(c1cccc(Nc3ncnc(Nc4cccc(N5C(=O)c6ccc(*)cc6C5=O)c4)n3)c1)C2=O (repeat unit) |
| 140.00 | *Oc1ccc(S(=O)(=O)c2ccc(Oc3ccc(C(C)(C)c4ccc(OCCCCOc5ccc(C(C)(C)c6ccc(*)cc6)cc5)cc4)cc3)cc2)cc1 (repeat unit) |
| 45.00 | *CC(*)C(=O)OCCOc1ccc(C(=O)Oc2ccc(OC(=O)c3ccc(OCCCC)cc3)cc2)cc1 (repeat unit) |
| 52.00 | *c1ccc(OCCCCCCCCCCCOC(=O)CCCCCCCCC(=O)OCCCCCCCCCCCOc2ccc(-c3nnc(*)s3)cc2)cc1 (repeat unit) |
| 81.00 | *c1ccc(-c2ccc3c(c2)C(CCCCCCCC)(CCCCCCCC)c2cc(*)ccc2-3)cc1 (repeat unit) |
| 282.00 | *C(=O)c1ccc2c(c1)C(=O)N(c1ccc(C(c3ccccc3)c3ccc(N4C(=O)c5ccc(*)cc5C4=O)cc3)cc1)C2=O (repeat unit) |
| 178.00 | */C=C(\C#N)c1cccc(/C(C#N)=C/c2ccc(/C=C/c3ccc(N(c4ccccc4)c4ccc(N(c5ccccc5)c5ccc(/C=C/c6ccc(*)s6)cc5)cc4)cc3)s2)c1 (repeat unit) |
